Laboratory results from US11845747B2, “Ester and carbonate pyrimidine compounds as JAK kinase inhibitors” (priority 2019, dated 2023).
≈ marks a conversion by molar mass, not a printed value.

Experiments:
JAK1 = biological target: T1, JAK1 (Homo sapiens, UniProt P23458); test: Biochemical LanthaScreen JAK1 kinase assay; conditions: Km ATP 25 μM; pKi from pIC50 by Cheng-Prusoff; read-out: JAK 1 (pKi) (converted)
T1 construct: GST; purchased Life Technologies
Experimental: (§1) Assay 1: Biochemical JAK and Tyk2 Kinase Assays A panel of four LanthaScreen JAK biochemical assays (JAK1, 2, 3 and Tyk2) were carried in a common kinase reaction buffer (50 mM HEPES, pH 7.5, 0.01% Brij-35, 10 mM MgCl2, and 1 mM EGTA). Recombinant GST-tagged JAK enzymes and a GFP-tagged STAT1 peptide substrate were obtained from Life Technologies. Serially or discretely diluted compounds were pre-incubated with each of the four JAK enzymes and the substrate in white 384-well microplates (Corning) at ambient temperature for 1 h. ATP was subsequently added to initiate the kinase reactions in 10 μL total volume, with 1% DMSO. […] Kinase reactions were allowed to proceed for 1 hour at ambient temperature before a 10 μL preparation of EDTA (10 mM final concentration) and Tb-anti-pSTAT1 ([…]) antibody (Life Technologies, 2 nM final concentration) in TR-FRET dilution buffer (Life Technologies) was added. The plates were allowed to incubate at ambient temperature for 1 h before being read on the EnVision reader (Perkin Elmer). Emission ratio signals (520 nm/495 nm) were recorded and utilized to calculate the percent inhibition values based on DMSO and background controls. For dose-response analysis, percent inhibition data were plotted vs. compound concentrations, and IC50 values were determined from a 4-parameter robust fit model with the Prism software (GraphPad Software). Results were expressed as pIC50 (negative logarithm of IC50) and subsequently converted to pKi (negative logarithm of dissociation constant, Ki) using the Cheng-Prusoff equation.

JAK3 = biological target: T2, JAK3 (Homo sapiens, UniProt P52333); test: Biochemical LanthaScreen JAK3 kinase assay; conditions: Km ATP 1.6 μM; pKi from pIC50 by Cheng-Prusoff; read-out: JAK 3 (pKi) (converted)
T2 construct: GST; purchased Life Technologies
T2 sequence (P52333 1-1124): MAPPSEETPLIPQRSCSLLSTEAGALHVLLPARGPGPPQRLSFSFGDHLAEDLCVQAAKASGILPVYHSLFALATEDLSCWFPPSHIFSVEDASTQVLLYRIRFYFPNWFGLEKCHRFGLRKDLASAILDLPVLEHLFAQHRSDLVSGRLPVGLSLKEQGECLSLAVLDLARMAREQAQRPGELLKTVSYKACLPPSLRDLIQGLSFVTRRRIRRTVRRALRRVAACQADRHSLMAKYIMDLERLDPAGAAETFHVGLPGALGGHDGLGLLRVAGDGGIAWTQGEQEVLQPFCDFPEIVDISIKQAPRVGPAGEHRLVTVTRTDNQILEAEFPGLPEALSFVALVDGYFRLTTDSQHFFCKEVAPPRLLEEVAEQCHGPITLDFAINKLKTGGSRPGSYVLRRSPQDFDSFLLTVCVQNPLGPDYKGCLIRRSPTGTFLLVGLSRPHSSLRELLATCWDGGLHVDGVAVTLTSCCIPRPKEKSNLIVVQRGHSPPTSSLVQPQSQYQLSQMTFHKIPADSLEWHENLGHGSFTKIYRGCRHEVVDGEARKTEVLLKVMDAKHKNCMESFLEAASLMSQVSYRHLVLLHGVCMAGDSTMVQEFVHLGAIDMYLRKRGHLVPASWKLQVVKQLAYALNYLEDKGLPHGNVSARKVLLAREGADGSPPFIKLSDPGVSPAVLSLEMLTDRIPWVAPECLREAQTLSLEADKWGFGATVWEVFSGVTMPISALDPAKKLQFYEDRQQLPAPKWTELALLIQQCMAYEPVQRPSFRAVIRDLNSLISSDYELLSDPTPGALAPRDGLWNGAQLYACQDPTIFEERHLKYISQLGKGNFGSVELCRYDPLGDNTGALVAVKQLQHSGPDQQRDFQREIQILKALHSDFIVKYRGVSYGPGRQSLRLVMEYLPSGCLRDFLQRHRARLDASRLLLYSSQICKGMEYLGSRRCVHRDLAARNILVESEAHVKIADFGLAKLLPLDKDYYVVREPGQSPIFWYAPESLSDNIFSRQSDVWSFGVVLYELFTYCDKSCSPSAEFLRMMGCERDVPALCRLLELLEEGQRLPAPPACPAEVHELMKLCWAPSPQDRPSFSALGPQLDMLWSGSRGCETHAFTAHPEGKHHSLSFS
Experimental: as §1

physchem = format: physicochemical; conditions: pH 7.4, aqueous buffer, thermodynamic from solid
Experimental: Assay 4: Aqueous Solubility Assay The purpose of this assay was to quantify the solubility of test compounds in pH 4 and pH 7.4 PBS buffers. The assay required 40 μL of 10 mM DMSO test compound solution per desired buffer in addition to 20 μL required to make a test standard. For example, to test a compound in both buffers, 100 μL (2*40 μL+20 μL) of 10 mM DMSO compound stock solution was required. The standard was created by diluting 20 μL of 10 mM DMSO compound stock solution into 180 μL of methanol and was shaken for five minutes to ensure solution uniformity. […] This 1,000 μM solution was run on an Agilent 1260 LC-MS system by injecting 2 μL in order to obtain the peak area. For the test solutions, 40 μL of 10 mM DMSO compound stock solution, per PBS buffer condition, were dried down into a powder overnight. Once in powder form, 400 μL of the desired PBS buffer was added to the powder and allowed to shake vigorously for four hours. The maximum theoretical concentration for this sample solution was 1,000 μM. After four hours of shaking, the samples were centrifuged for 10 minutes at 3,000 RPM before injecting 2 μL on the same Agilent 1260 LC-MS system to obtain the peak area. […]

T1 sequence (P23458 whole entry): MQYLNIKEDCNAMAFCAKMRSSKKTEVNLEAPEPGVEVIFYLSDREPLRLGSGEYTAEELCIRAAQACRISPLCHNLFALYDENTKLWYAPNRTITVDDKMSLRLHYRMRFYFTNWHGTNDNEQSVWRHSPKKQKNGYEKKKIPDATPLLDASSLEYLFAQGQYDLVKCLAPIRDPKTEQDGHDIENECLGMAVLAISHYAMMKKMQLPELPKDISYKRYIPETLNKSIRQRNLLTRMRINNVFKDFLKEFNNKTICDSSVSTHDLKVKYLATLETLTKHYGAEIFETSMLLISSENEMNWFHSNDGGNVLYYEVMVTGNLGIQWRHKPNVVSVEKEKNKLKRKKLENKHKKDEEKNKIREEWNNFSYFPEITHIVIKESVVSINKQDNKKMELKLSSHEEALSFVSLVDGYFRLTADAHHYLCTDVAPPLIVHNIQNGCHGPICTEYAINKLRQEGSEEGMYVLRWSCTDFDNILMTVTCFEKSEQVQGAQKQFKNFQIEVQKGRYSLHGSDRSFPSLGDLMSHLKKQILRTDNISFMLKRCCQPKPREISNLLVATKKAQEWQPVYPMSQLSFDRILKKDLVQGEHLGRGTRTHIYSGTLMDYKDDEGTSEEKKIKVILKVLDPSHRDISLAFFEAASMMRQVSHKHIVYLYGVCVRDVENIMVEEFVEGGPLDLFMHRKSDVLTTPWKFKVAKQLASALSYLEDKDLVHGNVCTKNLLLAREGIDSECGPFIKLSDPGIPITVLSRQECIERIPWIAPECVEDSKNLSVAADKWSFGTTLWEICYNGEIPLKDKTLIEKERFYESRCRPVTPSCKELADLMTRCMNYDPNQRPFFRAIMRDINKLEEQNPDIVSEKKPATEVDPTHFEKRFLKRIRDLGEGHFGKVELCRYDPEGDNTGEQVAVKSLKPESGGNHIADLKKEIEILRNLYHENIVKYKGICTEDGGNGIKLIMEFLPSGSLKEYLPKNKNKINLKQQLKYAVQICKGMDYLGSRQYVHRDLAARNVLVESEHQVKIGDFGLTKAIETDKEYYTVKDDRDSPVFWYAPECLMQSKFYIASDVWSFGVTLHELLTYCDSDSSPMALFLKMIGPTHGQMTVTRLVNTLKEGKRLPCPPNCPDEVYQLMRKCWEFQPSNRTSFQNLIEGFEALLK

Row | SMILES | Ki (JAK1) [nM] | Ki (JAK3) [nM] | solubility at 4 h (physchem) [µM]
1 | CCS(=O)(=O)N1[C@@H]2CCC[C@H]1C[C@H](N(C)c1nc(COC(C)=O)c(F)c(Nc3cc(C)[nH]n3)n1)C2 [Compound 1, (2-(((1R,3s,5S)-9-(ethylsulfonyl)-9-azabicyclo[3.3.1]nonan-3-yl)(methyl)amino)-5-fluoro-6-((5-methyl-1H-pyrazol-3-yl)amino)pyrimidin-4-yl)methyl acetate] | 0.1 to 1 | 0.1 to 1 | 10 to 50
2 | CCC(=O)OCc1nc(N(C)[C@@H]2C[C@H]3CCC[C@@H](C2)N3S(=O)(=O)CC)nc(Nc2cc(C)[nH]n2)c1F [Compound 2, (2-(((1R,3s,5S)-9-(ethylsulfonyl)-9-azabicyclo[3.3.1]nonan-3-yl)(methyl)amino)-5-fluoro-6-((5-methyl-1H-pyrazol-3-yl)amino)pyrimidin-4-yl)methyl propionate] | 0.1 to 1 | 0.1 to 1 | 10 to 50 (≈ 5.24 to 26.2 µg/mL)
3 | CCCC(=O)OCc1nc(N(C)[C@@H]2C[C@H]3CCC[C@@H](C2)N3S(=O)(=O)CC)nc(Nc2cc(C)[nH]n2)c1F [Compound 3, (2-(((1R,3s,5S)-9-(ethylsulfonyl)-9-azabicyclo[3.3.1]nonan-3-yl)(methyl)amino)-5-fluoro-6-((5-methyl-1H-pyrazol-3-yl)amino)pyrimidin-4-yl)methyl butyrate] | 0.1 to 1 | 1 to 10 | 10 to 50 (≈ 5.38 to 26.9 µg/mL)
4 | CCCCC(=O)OCc1nc(N(C)[C@@H]2C[C@H]3CCC[C@@H](C2)N3S(=O)(=O)CC)nc(Nc2cc(C)[nH]n2)c1F [Compound 4, (2-(((1R,3s,5S)-9-(ethylsulfonyl)-9-azabicyclo[3.3.1]nonan-3-yl)(methyl)amino)-5-fluoro-6-((5-methyl-1H-pyrazol-3-yl)amino)pyrimidin-4-yl)methyl pentanoate] | 0.1 to 1 | 1 to 10 | 50 to 100 (≈ 27.6 to 55.2 µg/mL)
5 | CCCCCCC(=O)OCc1nc(N(C)[C@@H]2C[C@H]3CCC[C@@H](C2)N3S(=O)(=O)CC)nc(Nc2cc(C)[nH]n2)c1F [Compound 5, (2-(((1R,3s,5S)-9-(ethylsulfonyl)-9-azabicyclo[3.3.1]nonan-3-yl)(methyl)amino)-5-fluoro-6-((5-methyl-1H-pyrazol-3-yl)amino)pyrimidin-4-yl)methyl heptanoate] | 1 to 10 | 10 to 100 | 10 to 50 (≈ 5.8 to 29 µg/mL)
6 | CCS(=O)(=O)N1[C@@H]2CCC[C@H]1C[C@H](N(C)c1nc(COC(=O)OC3CCCCC3)c(F)c(Nc3cc(C)[nH]n3)n1)C2 [Compound 6, cyclohexyl ((2-(((1R,3s,5S)-9-(ethylsulfonyl)-9-azabicyclo[3.3.1]nonan-3-yl)(methyl)amino)-5-fluoro-6-((5-methyl-1H-pyrazol-3-yl)amino)pyrimidin-4-yl)methyl) carbonate] | 1 to 10 | 10 to 100 | 10 to 50 (≈ 5.94 to 29.7 µg/mL)
7 | CCS(=O)(=O)N1[C@@H]2CCC[C@H]1C[C@H](N(C)c1nc(COC(=O)C3CCOCC3)c(F)c(Nc3cc(C)[nH]n3)n1)C2 [Compound 7, (2-(((1R,3s,5S)-9-(ethylsulfonyl)-9-azabicyclo[3.3.1]nonan-3-yl)(methyl)amino)-5-fluoro-6-((5-methyl-1H-pyrazol-3-yl)amino)pyrimidin-4-yl)methyl tetrahydro-2H-pyran-4-carboxylate] | 0.1 to 1 | 0.1 to 1 | 100 to 1000 (≈ 58 to 580 µg/mL)
8 | CCS(=O)(=O)N1[C@@H]2CCC[C@H]1C[C@H](N(C)c1nc(COC(=O)OC(C)C)c(F)c(Nc3cc(C)[nH]n3)n1)C2 [Compound 8, (2-(((1R,3s,5S)-9-(ethylsulfonyl)-9-azabicyclo[3.3.1]nonan-3-yl)(methyl)amino)-5-fluoro-6-((5-methyl-1H-pyrazol-3-yl)amino)pyrimidin-4-yl)methyl isopropyl carbonate] | 0.1 to 1 | 1 to 10 | 50 to 100 (≈ 27.7 to 55.4 µg/mL)
9 | CCS(=O)(=O)N1[C@@H]2CCC[C@H]1C[C@H](N(C)c1nc(COC(=O)OC3CCOCC3)c(F)c(Nc3cc(C)[nH]n3)n1)C2 [Compound 9, (2-(((1R,3s,5S)-9-(ethylsulfonyl)-9-azabicyclo[3.3.1]nonan-3-yl)(methyl)amino)-5-fluoro-6-((5-methyl-1H-pyrazol-3-yl)amino)pyrimidin-4-yl)methyl (tetrahydro-2H-pyran-4-yl) carbonate] | 0.1 to 1 | 1 to 10 | 100 to 1000 (≈ 59.6 to 596 µg/mL)
10 | CCS(=O)(=O)N1[C@@H]2CCC[C@H]1C[C@H](N(C)c1nc(CO)c(F)c(Nc3cc(C)[nH]n3)n1)C2 [Compound M, (2-(((1R,3s,5S)-9-(ethylsulfonyl)-9-azabicyclo[3.3.1]nonan-3-yl)(methyl)amino)-5-fluoro-6-((5-methyl-1H-pyrazol-3-yl)amino)pyrimidin-4-yl)methanol] | ≤ 0.1 | 0.1 to 1 | 10 to 50 (≈ 4.68 to 23.4 µg/mL)
